Reference: patent US10858335B2 (Rigel Pharmaceuticals, Inc., priority 2014, dated 2020)

tested on: GDF8 signaling (p-SMAD-3 (Ser423/425)); assay: AlphaScreen SureFire SMAD3 (p-Ser423/425) assay, GDF8-stimulated cells (GDF pSMAD); format: cell-based; settings: Mus musculus, MPC-11, GDF8-stimulated pSMAD3, MPC11; tested as the salt form given; read-out: GDF pSMAD (MPC11) (μM), inhibition of GDF8 signaling

IC50 | SMILES
0.737 µM | Cc1cc(-c2ncccc2-c2ccc3ncnc(NCC(N)=O)c3c2)ccc1F [compound 1026, 2-((6-(2-(4-fluoro-3-methylphenyl)pyridin-3-yl)quinazolin-4-yl)amino)acetamide]
1.14 µM | Nc1ncnc2ccc(-c3cccnc3-c3cccc(OC4COC4)c3)cc12 [compound 1030, 6-(2-(3-(oxetan-3-yloxy)phenyl)pyridin-3-yl)quinazolin-4-amine]
0.0958 µM | Nc1ncnc2ccc(-c3cccnc3-c3cc(C(F)F)ccc3F)cc12 [compound 1023, 6-(2-(5-(difluoromethyl)-2-fluorophenyl)pyridin-3-yl)quinazolin-4-amine]
2.18 µM | Cc1cc(-c2cccnc2-c2ccc(F)c(Cl)c2)cc2c(N)ncnc12 [compound 985, 6-(2-(3-chloro-4-fluorophenyl)pyridin-3-yl)-8-methylquinazolin-4-amine]

same assay, conditions: Mus musculus, MPC-11, MPC11; GDF8-stimulated; p-SMAD3 AlphaScreen; read-out: GDF pSMAD (MPC11) (inhibition of GDF8 signaling)

SMILES | IC50
Fc1ccc(-c2ncccc2-c2ccc3ncnn3n2)cc1Cl [compound 953, 6-(2-(3-Chloro-4-fluorophenyl)pyridin-3-yl)-[1,2,4]triazolo[1,5-b]pyridazine] | 0.661 µM
Cc1cc(-c2ncccc2-c2ccc3ncc(C(=O)NCCN4CCN(C)CC4)n3c2)ccc1F [compound 590, 6-(2-(4-Fluoro-3-methylphenyl)pyridin-3-yl)-N-(2-(4-methylpiperazin-1-yl)ethyl)imidazo[1,2-a]pyridine-3-carboxamide] | 0.514 µM
Cc1cc(-c2ncc(NC(=O)c3cccnc3)cc2-c2ccc3ncsc3c2)ccc1F [compound 315, N-(5-(Benzo[d]thiazol-6-yl)-6-(4-fluoro-3-methylphenyl)pyridin-3-yl)nicotinamide] | 0.749 µM
Cc1ccc(F)c(-c2ncccc2-c2cnc3cn[nH]c3c2)c1 [Compound 140, 6-(2-(2-Fluoro-5-methylphenyl)pyridin-3-yl)-1H-pyrazolo[4,3-b]pyridine] | 2.89 µM
Cc1cc(-c2ncccc2-c2ccc3ncnc(Oc4cccc(N5CCOCC5)c4)c3c2)ccc1F [compound 444, 4-(3-((6-(2-(4-Fluoro-3-methylphenyl)pyridin-3-yl)quinazolin-4-yl)oxy)phenyl)morpholine] | 1.08 µM
CC(C)Oc1cccc(-c2ncccc2-c2ccc3ncnc(N)c3c2)c1 [compound 480, 6-(2-(3-isopropoxyphenyl)pyridin-3-yl)quinazolin-4-amine] | 1.21 µM
Cc1cccc(-c2ncccc2-c2ccc3ncccc3n2)c1 [compound 536, 2-(2-(m-Tolyl)pyridin-3-yl)-1,5-naphthyridine] | 0.404 µM
N#Cc1cnc2ccc(-c3cccnc3-c3cc(F)c(F)cc3F)cn12 [compound 695, 6-(2-(2,4,5-Trifluorophenyl)pyridin-3-yl)imidazo[1,2-a]pyridine-3-carbonitrile] | 1.52 µM
Cn1ccc(-c2cnc3ccc(-c4cccnc4-c4ccc(F)c(Cl)c4)cn23)n1 [compound 853, 6-(2-(3-Chloro-4-fluorophenyl)pyridin-3-yl)-3-(1-methyl-1H-pyrazol-3-yl)imidazo[1,2-a]pyridine] | 0.881 µM
Clc1cccc(-c2ncccc2-c2ccc3ncnn3c2)c1 [compound 746, 6-(2-(3-Chlorophenyl)pyridin-3-yl)-[1,2,4]triazolo[1,5-a]pyridine] | 0.566 µM
Cc1cc(-c2ncc(NCc3ccc(-c4cccnc4)nc3)cc2-c2ccc3ncsc3c2)ccc1F [compound 328, N-([2,3′-Bipyridin]-5-ylmethyl)-5-(benzo[d]thiazol-6-yl)-6-(4-fluoro-3-methylphenyl)pyridin-3-amine] | 2.5 µM
Nc1nccc2ccc(-c3cccnc3-c3ccc(F)c(Cl)c3)cc12 [compound 297, 7-(2-(3-Chloro-4-fluorophenyl)pyridin-3-yl)isoquinolin-1-amine] | 2.26 µM
Cc1cc(-c2ncc(-c3cccc(O)c3)cc2-c2ccc3ncsc3c2)ccc1F [compound 343, 3-(5-(Benzo[d]thiazol-6-yl)-6-(4-fluoro-3-methylphenyl)pyridin-3-yl)phenol] | 2.64 µM
CC(C)c1cccc(-c2ncc(N)cc2-c2ccc3[nH]ncc3c2)c1 [Compound 16, 5-(1H-Indazol-5-yl)-6-(3-isopropylphenyl)pyridin-3-amine] | 6.34 µM
CCn1ncc2cc(-c3cccnc3-c3cccc(C)c3)ccc21 [Compound 185, 1-Ethyl-5-(2-m-tolylpyridin-3-yl)-1H-indazole] | 8.86 µM
Cc1cc(-c2ncccc2-c2ccc3c(cnn3C(=O)NCCCN(C)C)c2)ccc1F [compound 634, N-(3-(Dimethylamino)propyl)-5-(2-(4-fluoro-3-methylphenyl)pyridin-3-yl)-1H-indazole-1-carboxamide] | 14.8 µM
Cc1cc(-c2ncccc2-c2ccn3c(C(=O)NCCN4CCN(C)CC4)ncc3c2)ccc1F [compound 265, 7-(2-(4-Fluoro-3-methylphenyl)pyridin-3-yl)-N-(2-(4-methylpiperazin-1-yl)ethyl)imidazo[1,5-a]pyridine-3-carboxamide] | 8.12 µM
COc1cc(-c2ncccc2-c2ccc3ncnc(N)c3c2)c(F)cc1F [compound 502, 6-(2-(2,4-Difluoro-5-methoxyphenyl)pyridin-3-yl)quinazolin-4-amine] | 0.563 µM
N#Cc1cnc2ccc(-c3cccnc3-c3cc(Cl)ccc3F)cn12 [compound 719, 6-(2-(5-Chloro-2-fluorophenyl)pyridin-3-yl)imidazo[1,2-a]pyridine-3-carbonitrile] | 0.402 µM
Cc1cc(-c2ncccc2-c2ccc3ncnc(NCCCN4CCOCC4)c3c2)ccc1F [compound 424, 6-(2-(4-Fluoro-3-methylphenyl)pyridin-3-yl)-N-(3-morpholinopropyl)quinazolin-4-amine] | 2.43 µM
Cc1cc(-c2ncccc2-c2ccc3ncc(C(=O)Nc4cccc(C(N)=O)c4)n3c2)ccc1F [compound 619, N-(3-Carbamoylphenyl)-6-(2-(4-fluoro-3-methylphenyl)pyridin-3-yl)imidazo[1,2-a]pyridine-3-carboxamide] | 0.544 µM
Cc1cc(-c2ncccc2-c2ccn3ncc(C(=O)NCCCN)c3c2)ccc1F [compound 684, N-(3-Aminopropyl)-5-(2-(4-fluoro-3-methylphenyl)pyridin-3-yl)pyrazolo[1,5-a]pyridine-3-carboxamide] | 0.593 µM

Results, then the molecule that gave them:

IC50 | SMILES
0.367 µM | N#Cc1cccc(-c2ncccc2-c2ccc3ncsc3c2)c1 [compound 670, 3-(3-(Benzo[d]thiazol-6-yl)pyridin-2-yl)benzonitrile]
0.275 µM | Cc1cnc2ccc(-c3cccnc3-c3ccc(F)c(Cl)c3)cn12 [compound 764, 6-(2-(3-Chloro-4-fluorophenyl)pyridin-3-yl)-3-methylimidazo[1,2-a]pyridine]
0.208 µM | Cc1cc(-c2ncccc2-c2ccc3cnc(N)nc3c2)ccc1F [compound 396, 7-(2-(4-Fluoro-3-methylphenyl)pyridin-3-yl)quinazolin-2-amine]
0.115 µM | COc1cccc(-c2ncccc2-c2ccc3ncnc(N)c3c2)c1 [compound 451, 6-(2-(3-Methoxyphenyl)pyridin-3-yl)quinazolin-4-amine]
0.228 µM | Cc1cc(-c2ncccc2-c2ccn3ncc(C(=O)NCCCO)c3c2)ccc1F [compound 706, 5-(2-(4-Fluoro-3-methylphenyl)pyridin-3-yl)-N-(3-hydroxypropyl)pyrazolo[1,5-a]pyridine-3-carboxamide]
0.131 µM | Fc1ccc(Cl)cc1-c1ncccc1-c1ccn2nccc2c1 [compound 761, 5-(2-(5-Chloro-2-fluorophenyl)pyridin-3-yl)pyrazolo[1,5-a]pyridine]
0.232 µM | Nc1ncnc2ccc(-c3cccnc3-c3ccc(F)c(Cl)c3)nc12 [compound 964, 6-(2-(3-Chloro-4-fluorophenyl)pyridin-3-yl)pyrido[3,2-d]pyrimidin-4-amine]
0.3 µM | Cc1cccc(-c2ncccc2-c2ccc3ncn(C)c3c2)c1 [Compound 186, 1-methyl-6-(2-m-tolylpyridin-3-yl)-1H-benzo[d]imidazole]
0.206 µM | Fc1cc(F)c(-c2ncccc2-c2ccn3nccc3n2)cc1Cl [compound 918, 5-(2-(5-Chloro-2,4-difluorophenyl)pyridin-3-yl)pyrazolo[1,5-a]pyrimidine]
0.129 µM | FC(F)Oc1cccc(-c2ncccc2-c2ccc3ncsc3c2)c1 [compound 961, 6-(2-(3-(Difluoromethoxy)phenyl)pyridin-3-yl)benzo[d]thiazole]
0.374 µM | Cc1cc(-c2ncccc2-c2ccc3ncnc(OCCCN4CCCC4=O)c3c2)ccc1F [compound 431, 1-(3-((6-(2-(4-Fluoro-3-methylphenyl)pyridin-3-yl)quinazolin-4-yl)oxy)propyl)pyrrolidin-2-one]
0.26 µM | Cn1cnc2ccc(-c3cccnc3-c3cccc(C4CC4)c3)cc21 [Compound 200, 6-(2-(3-Cyclopropylphenyl)pyridin-3-yl)-1-methyl-1H-benzo[d]imidazole]
0.299 µM | Nc1ncnc2ccc(-c3cccnc3-c3cccc(O)c3)cc12 [compound 456, 3-(3-(4-Aminoquinazolin-6-yl)pyridin-2-yl)phenol]
0.0213 µM | NC(=O)c1cnc2ccc(-c3cccnc3-c3ccc(F)c(Cl)c3)cn12 [compound 843, 6-(2-(3-Chloro-4-fluorophenyl)pyridin-3-yl)imidazo[1,2-a]pyridine-3-carboxamide]
0.175 µM | Clc1cccc(-c2ncccc2-c2ccn3nccc3c2)c1 [compound 759, 5-(2-(3-Chlorophenyl)pyridin-3-yl)pyrazolo[1,5-a]pyridine]
0.187 µM | O=c1nc[nH]c2ccc(-c3cccnc3-c3cccc(Cl)c3)cc12 [compound 389, 6-(2-(3-Chlorophenyl)pyridin-3-yl)quinazolin-4(1H)-one]
0.122 µM | Cc1cc(-c2ncccc2-c2ccc3ncc(C(=O)NCCO)n3c2)ccc1F [compound 705, 6-(2-(4-Fluoro-3-methylphenyl)pyridin-3-yl)-N-(2-hydroxyethyl)imidazo[1,2-a]pyridine-3-carboxamide]
0.247 µM | Cc1cc(O)cc(-c2ncccc2-c2ccc3ncnc(N)c3c2)c1 [compound 495, 3-(3-(4-Aminoquinazolin-6-yl)pyridin-2-yl)-5-methylphenol]
